Measured values published in US20240383900A1, “SUBSTITUTED PYRAZOLO [1,5-A]PYRIMIDINE-7-AMINE COMPOUNDS AS CDK INHIBITORS AND THEIR THERAPEUTIC USE” (Carrick Therapeutics Limited, priority 2021, published 2024).
Like-named read-outs stand apart in the source and are kept apart here.

Assays:
[1] = tested on: A673 cells; test: Cytotoxicity in A673 cells (Cell Titer Glo viability); format: cell-based; conditions: for Ratio of Biochemical Potency:Cellular Potency: CDK12 IC50 / A673 IC50; for IC50: Homo sapiens
Outline: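 Cells plated at 1.2×10^5 per well in DMEM+10% FBS, 24 h, then compound series ± MLN4924 (30 nM final) in 0.1% DMSO for 72 h. Viability by Cell Titer Glo luminescence, normalised to vehicle (100%) and 0.1% Triton x-100 (0%); MLN4924 curves normalised to MLN4924-treated controls.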

[2] = target: Human CDK12 wt/CycK (Homo sapiens (Human), UniProt Q9NYV4); test: Radiometric protein kinase assay (33PanQinase Activity Assay), CDK12; format: biochemical; conditions: for CDK7/CDK12: ratio of CDK7 IC50 to CDK12 IC50, greater than 1 indicates selectivity for CDK12
Outline: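 Radiometric 33P assay: ATP, test compound (in 10% DMSO) and premixed substrate/enzyme incubated 60 min at 30 °C, stopped with 2% H3PO4. 33Pi incorporation counted by scintillation; least-squares curve fit.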

[3] = target: Human CDK7/CycH/MAT1 (Homo sapiens (Human), UniProt P50613); test: Radiometric protein kinase assay (33PanQinase Activity Assay), CDK7; format: biochemical; conditions: ATP 3 μM
[4] = target: Cyclin K (Homo sapiens (Human), UniProt O75909); test: Western blotting analysis of Cyclin K depletion in cell culture; format: cell-based; conditions: A673 cells, 1 μM test compound, 2 hours, absence and presence of 10 μM MLN4924
Protocol: A673 cells were incubated for 2 hours with of 1 μM compound in presence or in absence of 10 μM of the NAE (NEDD8 activating enzyme) inhibitor MLN4924 (Cell Signalling Technologies). Cells were washed 2× with cold Phosphate Buffered Saline (PBS, Sigma Aldrich), followed by the addition of lysis buffer for 15 minutes on ice before harvesting and centrifugation.
Protein content in the cell lysate was assessed by BCA assay (Thermo Fisher). Samples were then prepared with 4× Laemmlli Buffer (Bio-Rad) and heated to 95° C. for 5 minutes. Each sample was loaded onto a Mini-PROTEAN TGX Stain Free Gel (Bio-Rad) at 50 μg protein/well. SDS-PAGE was performed and then protein was transferred onto a PVDF membrane using a Trans-Blot® Turbo™ Midi PVDF Transfer Pack (Bio-Rad. Membranes were blocked in TBS-T (Invitrogen), 5% (w/v) milk powder (Marvel) overnight at 4° C.
Membranes were incubated with anti-CCNK antibody (rabbit) primary antibody (Abcam) and anti-GAPDH antibody (rabbit) in TBS-T for 2 hours. Membranes were then washed three times with TBS-T, before incubation secondary goat anti-rabbit HRP antibody (Cell Signalling Technologies) followed by 3× washing in TBS-T. Blots were imaged using a Chemidoc imager (Bio-Rad). Cyclin K depletion was measured as the observable drop in band intensity in compound treated samples relative to proteasome-inhibitor treated samples.
Cyclin K degradation was evaluated by Western blotting for cyclin K in A673 cells exposed to 1 μM test compound for 2 hours in the absence and presence of 10 μM MLN4924 (to inhibit proteosome activity).

[5] = tested on: A673 cells; test: A673 cytotoxic potency shift in the presence of MLN4924 (cyclin K degrader activity); format: cell-based; conditions: for Cyclin K Degrader Activity (A673 potency shift + MLN4924): 30 nM MLN4924, 72 hours; for Change of cytotoxic potency in the presence of MLN4924: 72 hours, presence and absence of 30 nM MLN4924
[6] = A673, read-out: Cellular Potency IC50 (nM) (in A673 cells)
[7] = A673 cells, 72 hours, read-out: A673 IC50
[8] = ATP 0.3 μM, read-out: CDK12 IC50
[9] = read-out: CKD12 Biochemical Potency IC50

Human CDK12 wt/CycK, sequence (Q9NYV4 whole entry): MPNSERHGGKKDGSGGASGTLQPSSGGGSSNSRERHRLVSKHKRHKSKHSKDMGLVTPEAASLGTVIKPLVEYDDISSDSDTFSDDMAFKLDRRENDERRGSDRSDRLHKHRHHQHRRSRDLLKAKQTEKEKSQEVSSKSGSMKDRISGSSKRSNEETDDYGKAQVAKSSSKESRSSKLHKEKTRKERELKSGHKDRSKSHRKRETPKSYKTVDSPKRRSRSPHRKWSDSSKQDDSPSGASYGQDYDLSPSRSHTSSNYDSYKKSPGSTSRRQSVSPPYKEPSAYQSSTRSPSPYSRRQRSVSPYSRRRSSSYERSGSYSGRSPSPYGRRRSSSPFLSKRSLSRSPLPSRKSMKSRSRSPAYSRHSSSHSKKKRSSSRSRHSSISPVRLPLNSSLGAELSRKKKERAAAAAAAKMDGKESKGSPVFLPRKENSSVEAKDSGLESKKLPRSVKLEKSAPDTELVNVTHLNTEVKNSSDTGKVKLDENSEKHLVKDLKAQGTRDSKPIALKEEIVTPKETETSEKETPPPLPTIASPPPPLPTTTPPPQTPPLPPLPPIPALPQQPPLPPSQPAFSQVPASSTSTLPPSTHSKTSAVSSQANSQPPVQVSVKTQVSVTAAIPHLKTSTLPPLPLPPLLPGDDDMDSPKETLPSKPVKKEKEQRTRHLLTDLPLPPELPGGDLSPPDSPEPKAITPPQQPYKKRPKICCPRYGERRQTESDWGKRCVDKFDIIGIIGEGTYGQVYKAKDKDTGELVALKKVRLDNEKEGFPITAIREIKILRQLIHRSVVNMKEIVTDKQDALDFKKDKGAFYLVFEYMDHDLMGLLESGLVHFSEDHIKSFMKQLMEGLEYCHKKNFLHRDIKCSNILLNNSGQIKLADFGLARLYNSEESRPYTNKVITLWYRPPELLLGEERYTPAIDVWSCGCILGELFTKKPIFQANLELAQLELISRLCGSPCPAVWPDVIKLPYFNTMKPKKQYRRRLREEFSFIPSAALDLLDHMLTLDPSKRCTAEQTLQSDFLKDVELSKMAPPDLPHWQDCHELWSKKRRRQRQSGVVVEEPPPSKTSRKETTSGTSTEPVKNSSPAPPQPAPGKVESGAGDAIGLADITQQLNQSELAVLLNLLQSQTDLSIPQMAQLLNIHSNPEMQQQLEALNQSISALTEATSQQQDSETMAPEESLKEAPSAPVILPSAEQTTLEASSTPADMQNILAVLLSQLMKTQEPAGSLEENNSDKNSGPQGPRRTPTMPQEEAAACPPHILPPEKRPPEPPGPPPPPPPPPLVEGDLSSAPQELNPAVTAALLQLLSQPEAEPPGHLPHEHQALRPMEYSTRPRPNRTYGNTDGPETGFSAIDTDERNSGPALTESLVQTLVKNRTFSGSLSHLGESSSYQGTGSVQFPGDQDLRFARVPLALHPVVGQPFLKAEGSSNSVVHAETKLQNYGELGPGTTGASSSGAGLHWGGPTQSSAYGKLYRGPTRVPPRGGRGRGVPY
Human CDK12 wt/CycK, sequence (O75909 whole entry partner): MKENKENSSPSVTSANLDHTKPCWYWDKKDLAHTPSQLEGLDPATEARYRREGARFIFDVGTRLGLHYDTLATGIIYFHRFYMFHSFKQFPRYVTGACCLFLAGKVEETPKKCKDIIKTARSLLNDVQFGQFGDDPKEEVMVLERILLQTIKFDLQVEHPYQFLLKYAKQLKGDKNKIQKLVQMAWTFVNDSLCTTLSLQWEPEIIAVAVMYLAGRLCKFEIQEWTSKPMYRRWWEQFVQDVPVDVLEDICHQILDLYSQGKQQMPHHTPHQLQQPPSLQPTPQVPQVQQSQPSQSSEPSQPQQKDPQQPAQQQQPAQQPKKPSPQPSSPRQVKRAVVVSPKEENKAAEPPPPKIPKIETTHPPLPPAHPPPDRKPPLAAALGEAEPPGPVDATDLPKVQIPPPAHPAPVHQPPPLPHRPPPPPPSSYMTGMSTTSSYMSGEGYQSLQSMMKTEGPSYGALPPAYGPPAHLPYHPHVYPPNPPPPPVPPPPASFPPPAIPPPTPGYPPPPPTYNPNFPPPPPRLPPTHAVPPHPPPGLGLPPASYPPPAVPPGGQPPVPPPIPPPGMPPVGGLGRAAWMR
Human CDK7/CycH/MAT1, sequence (P50613 whole entry): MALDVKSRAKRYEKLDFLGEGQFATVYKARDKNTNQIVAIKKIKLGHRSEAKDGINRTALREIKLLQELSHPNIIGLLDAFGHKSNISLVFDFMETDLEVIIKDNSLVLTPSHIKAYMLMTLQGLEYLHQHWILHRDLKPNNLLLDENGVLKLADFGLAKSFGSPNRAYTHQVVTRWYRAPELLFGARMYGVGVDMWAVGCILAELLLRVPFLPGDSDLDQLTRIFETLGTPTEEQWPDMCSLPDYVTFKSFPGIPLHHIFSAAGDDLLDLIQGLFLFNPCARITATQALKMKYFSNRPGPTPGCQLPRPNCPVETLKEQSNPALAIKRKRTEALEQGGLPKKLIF
Human CDK7/CycH/MAT1, sequence (P51946 whole entry partner): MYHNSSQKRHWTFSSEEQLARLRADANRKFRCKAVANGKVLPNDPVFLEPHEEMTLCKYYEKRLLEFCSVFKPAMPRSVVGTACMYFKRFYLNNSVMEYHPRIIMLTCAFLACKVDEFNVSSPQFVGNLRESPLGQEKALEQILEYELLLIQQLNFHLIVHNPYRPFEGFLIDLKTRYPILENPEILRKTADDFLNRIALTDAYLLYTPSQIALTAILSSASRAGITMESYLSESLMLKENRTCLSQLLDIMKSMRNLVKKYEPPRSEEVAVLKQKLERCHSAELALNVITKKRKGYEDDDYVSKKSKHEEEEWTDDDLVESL
Human CDK7/CycH/MAT1, sequence (P51948 whole entry partner): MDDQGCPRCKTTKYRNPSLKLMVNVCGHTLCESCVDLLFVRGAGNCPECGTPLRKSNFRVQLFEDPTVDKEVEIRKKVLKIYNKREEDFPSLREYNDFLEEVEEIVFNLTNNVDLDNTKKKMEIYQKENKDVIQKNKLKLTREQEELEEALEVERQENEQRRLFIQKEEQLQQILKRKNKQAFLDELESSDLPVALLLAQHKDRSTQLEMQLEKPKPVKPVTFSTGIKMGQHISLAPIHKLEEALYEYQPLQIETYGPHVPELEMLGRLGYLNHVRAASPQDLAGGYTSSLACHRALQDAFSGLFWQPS

CCc1cnn2c(NCc3ccc(-c4ccccn4)cc3)cc(NC[C@H]3CCNC[C@@H]3O)nc12 [PPA-005, (3R,4R)-4-(((3-ethyl-7-((4-(pyridin-2-yl)benzyl)amino)pyrazolo[1,5-a]pyrimidin-5-yl)amino)methyl)piperidin-3-ol]
Ratio of Biochemical Potency:Cellular Potency [1]: 30.91 | IC50 [1, 6]: 1.1 nM | IC50 [1, 7]: 1.1 nM | IC50 [2, 8]: 34 nM | CDK7/CDK12 [2]: 3.3 | IC50 [2, 9]: 34 nM | IC50 [3]: 112 nM | Cyclin K degradation by Western blotting [4]: found to degrade Cyclin K | Cyclin K Degrader Activity (A673 potency shift + MLN4924) [5]: ++ (>2 and ≤5 fold change.) | Change of cytotoxic potency in the presence of MLN4924 [5]: a significant decrease in cytotoxic potency

O[C@H]1CNCC[C@@H]1CNc1cc(NCc2ccc(-c3ccccn3)cc2)n2ncc(C3CC3)c2n1 [PPA-006]
Ratio of Biochemical Potency:Cellular Potency [1]: 14.57 | IC50 [1, 6]: 3.5 nM | IC50 [1, 7]: 3.5 nM | IC50 [2, 8]: 51 nM | CDK7/CDK12 [2]: 6.1 | IC50 [2, 9]: 51 nM | IC50 [3]: 312 nM | Cyclin K degradation by Western blotting [4]: found to degrade Cyclin K | Cyclin K Degrader Activity (A673 potency shift + MLN4924) [5]: +++ (>5 fold change.) | Change of cytotoxic potency in the presence of MLN4924 [5]: a significant decrease in cytotoxic potency
